Assays:
[1] = xn = mol fraction of the nth substance listed; details: 101.33 kPa, Liquid, Vibrating tube method
[2] = excess molar enthalpy (molar enthalpy of mixing); xn = mol fraction of the nth substance listed; details: 298.15 K, 101 kPa, Liquid, isothermal titration calorimeter

c1cc[nH]c1 [pyrrole] + c1ccncc1
mass density [kg/m3], [1]
Details	298.15 K	308.15 K	318.15 K	328.15 K	338.15 K
x1 = 0.0735	977.37	967.47	957.53	947.53	937.46
x1 = 0.1006	977.04	967.22	957.34	947.41	937.4
x1 = 0.1428	976.57	966.85	957.07	947.23	937.32
x1 = 0.1978	975.9	966.3	956.66	946.95	937.15
x1 = 0.2273	975.56	966.03	956.45	946.8	937.07
x1 = 0.3021	974.44	965.06	955.63	946.12	936.52
x1 = 0.3704	973.5	964.22	954.89	945.49	936.01
x1 = 0.4409	972.25	963.08	953.85	944.54	935.14
x1 = 0.5426	970.64	961.59	952.47	943.27	933.99
x1 = 0.6168	969.44	960.46	951.41	942.28	933.06
x1 = 0.682	968.6	959.68	950.68	941.6	932.43
x1 = 0.7554	967.69	958.82	949.87	940.85	931.72
x1 = 0.8374	966.69	957.88	948.98	939.99	930.91
x1 = 0.9063	966.15	957.38	948.53	939.58	930.54
x1 = 0.9591	965.77	957.04	948.21	939.3	930.28
x1 = 1	965.54	956.83	948.03	939.14	930.13

[2]
Details	excess molar enthalpy [kcal/mol]
x1 = 0.03	-0.0466
x1 = 0.06	-0.106
x1 = 0.0898	-0.164
x1 = 0.1197	-0.22
x1 = 0.1497	-0.274
x1 = 0.1797	-0.326
x1 = 0.2096	-0.375
x1 = 0.2395	-0.422
x1 = 0.2695	-0.466
x1 = 0.2994	-0.505
x1 = 0.3295	-0.541
x1 = 0.3594	-0.572
x1 = 0.3895	-0.597
x1 = 0.4195	-0.616
x1 = 0.4495	-0.629
x1 = 0.4795	-0.634
x1 = 0.4832	-0.637
x1 = 0.4902	-0.637
x1 = 0.5095	-0.633
x1 = 0.5202	-0.633
x1 = 0.5396	-0.625
x1 = 0.5502	-0.622
x1 = 0.5696	-0.61
x1 = 0.5802	-0.604
x1 = 0.5906	-0.595
x1 = 0.6102	-0.58
x1 = 0.6402	-0.551
x1 = 0.6702	-0.517
x1 = 0.7002	-0.479
x1 = 0.7302	-0.437
x1 = 0.7602	-0.393
x1 = 0.7901	-0.347
x1 = 0.8201	-0.298
x1 = 0.8501	-0.249
x1 = 0.8801	-0.198
x1 = 0.9101	-0.147
x1 = 0.9401	-0.0953
x1 = 0.9701	-0.0432

c1cc[nH]c1 [pyrrole] + c1ccccc1
[2]
Details	excess molar enthalpy [kcal/mol]
x1 = 0.015	0.017
x1 = 0.03	0.0293
x1 = 0.0448	0.0406
x1 = 0.0597	0.0508
x1 = 0.0747	0.0604
x1 = 0.0896	0.0691
x1 = 0.1045	0.0773
x1 = 0.1193	0.0847
x1 = 0.1343	0.0917
x1 = 0.1493	0.0981
x1 = 0.1642	0.104
x1 = 0.1792	0.109
x1 = 0.1942	0.115
x1 = 0.2092	0.119
x1 = 0.2242	0.123
x1 = 0.2392	0.127
x1 = 0.2542	0.131
x1 = 0.2691	0.134
x1 = 0.284	0.136
x1 = 0.299	0.139
x1 = 0.314	0.141
x1 = 0.329	0.143
x1 = 0.344	0.144
x1 = 0.359	0.145
x1 = 0.374	0.146
x1 = 0.389	0.147
x1 = 0.404	0.148
x1 = 0.419	0.148
x1 = 0.434	0.148
x1 = 0.449	0.148
x1 = 0.464	0.147
x1 = 0.479	0.146
x1 = 0.494	0.146
x1 = 0.5091	0.144
x1 = 0.5241	0.143
x1 = 0.5391	0.142
x1 = 0.5541	0.14
x1 = 0.5613	0.14
x1 = 0.5683	0.139
x1 = 0.5692	0.138
x1 = 0.583	0.137
x1 = 0.5842	0.136
x1 = 0.5977	0.135
x1 = 0.5993	0.133
x1 = 0.6122	0.133
x1 = 0.6143	0.131
x1 = 0.6267	0.131
x1 = 0.6411	0.129
x1 = 0.6554	0.126
x1 = 0.6696	0.124
x1 = 0.6838	0.121
x1 = 0.6978	0.118
x1 = 0.7118	0.114
x1 = 0.7257	0.111
x1 = 0.7395	0.107
x1 = 0.7533	0.104
x1 = 0.7669	0.0996
x1 = 0.7805	0.0956
x1 = 0.794	0.0913
x1 = 0.8074	0.0868
x1 = 0.8208	0.0822
x1 = 0.8341	0.0774
x1 = 0.8473	0.0726
x1 = 0.8604	0.0674
x1 = 0.8735	0.0622
x1 = 0.8865	0.0567
x1 = 0.8993	0.0511
x1 = 0.9121	0.0452
x1 = 0.9249	0.0392
x1 = 0.9377	0.0331
x1 = 0.9502	0.0269
x1 = 0.9628	0.0203
x1 = 0.9753	0.0138
x1 = 0.9877	0.00698

From the NIST ThermoML archive (doi:10.1016/j.fluid.2013.10.029)
